Laboratory results published in patent US20090088483A1, “AQUEOUS SUSPENSIONS OR DISPERSIONS OF INORGANIC PIGMENTS CONTAINING A MIXTURE CONSISTING OF DIALDEHYDES AND FORMALDEHYDE CLEAVERS” (priority 2005, published 2009).

Legend:
[1] = cited from earlier work
[2] = system: microbe spectrum of a microbially contaminated slurry; assay: quantitative test of microbial count reduction in a microbially contaminated slurry; assay type: cell-based; design: unit not given here; settings: PCC slurry
Description: Here, the quantitative test was carried out to determine how rapidly (1 hour to 7 days) the stated amounts of active substance reduce the microbial count of a microbially contaminated slurry.

[3] = system: microbially contaminated (alkaline) slurry; settings: cited from earlier work

OCOCCOCO [EDDM, (ethylenedioxy)dimethanol]
decline in active substance at elevated temperatures ([1]; 50-80° C., over a period of a few days, alkaline pH): no significant decline | microbial count ([2]; 100 ppm EDDM, 1 hour): 1.6 * 10^5 | microbial count ([2]; 100 ppm EDDM, 2 hours): 1.7 * 10^5 | microbial count ([2]; 100 ppm EDDM, 3 hours): 1.6 * 10^5 | microbial count ([2]; 100 ppm EDDM, 24 hours): 3.4 * 10^4 | microbial count ([2]; 100 ppm EDDM, 3 days): 3.3 * 10^4 | microbial count ([2]; 100 ppm EDDM, 7 days): 5.6 * 10^3 | microbial count ([2]; 200 ppm EDDM, 1 hour): 1.6 * 10^5 | microbial count ([2]; 200 ppm EDDM, 2 hours): 1.1 * 10^5 | microbial count ([2]; 200 ppm EDDM, 3 hours): 1.2 * 10^5 | microbial count ([2]; 200 ppm EDDM, 24 hours): 2.9 * 10^4 | microbial count ([2]; 200 ppm EDDM, 3 days): 2.3 * 10^4 | microbial count ([2]; 200 ppm EDDM, 7 days): 1.7 * 10^3

O=CCCCC=O [GDA, glutaraldehyde]
degradation of active substance in the slurry ([1]; in the slurry after a few days): completely degraded | microbial count ([2]; 10 ppm GDA, 1 hour): 1.2 * 10^5 | microbial count ([2]; 10 ppm GDA, 2 hours): 1.3 * 10^4 | microbial count ([2]; 10 ppm GDA, 3 hours): 2.6 * 10^3 | microbial count ([2]; 10 ppm GDA, 24 hours): <100 | microbial count ([2]; 10 ppm GDA, 3 days): 4.7 * 10^2 | microbial count ([2]; 10 ppm GDA, 7 days): 3.5 * 10^5 | microbial count ([2]; 20 ppm GDA, 1 hour): 2.2 * 10^3 | microbial count ([2]; 20 ppm GDA, 2 hours): 3.0 * 10^2 | microbial count ([2]; 20 ppm GDA, 3 hours): <100 | microbial count ([2]; 20 ppm GDA, 24 hours): <100 | microbial count ([2]; 20 ppm GDA, 3 days): <100 | microbial count ([2]; 20 ppm GDA, 7 days): 1.7 * 10^3 | time to sanitize a microbially contaminated (alkaline) slurry [3]: 1 to 4 h
